Experiments:
[1] = target: Tyrosine-protein kinase JAK2 (Homo sapiens, UniProt O60674); test: LC/MS grade water and acetonitrile (ACN), were purchased from HoneyWell, Burdick & Jackson (Muskegon, Mich., USA). […] The compounds were tested in duplicate. Column 12 was used for positive controls, and column 24 contained negative controls with no enzyme added. A compound from our internal collection, with inhibitory activity for JAK isoforms, was used as a reference compound. […] The enzyme reaction was initiated by the addition of 10 μL of enzyme and ATP mixture to 10 μL of substrate solution prepared in reaction buffer (50 mM MOPS pH 7.5, 10 mM MgCl2, 1 mM EDTA, 2 mM DTT, 0.002% Tween-20). The Tyk2 enzyme was pre-incubated with 2 mM ATP for 30 min prior to the reaction initiation. Immediately after the addition of the enzyme to the reaction mixture, the plate was centrifuged at 1000 rpm for 1 minute and incubated at 25° C. for 45 minutes for JAK3 and 90 minutes for JAK1, JAK2 and Tyk2. […] The plates then were transferred on to the RapidFire for the MS analysis. Compound inhibition was assessed by a decrease of the phosphorylated product levels in sample wells compared to the non-inhibited enzyme reaction.
[2] = target: T1, Tyrosine-protein kinase JAK3 (Homo sapiens, UniProt P52333); test: (§1) Enzymatic Inhibition Assay: Substrate (NH2-[…]-CO2), internal standard peptide (NH2-[…]-CO2) and product peptide (for standard curve only) (NH2-[…]-Pi-FELVKK-CO2), were purchased from AnaSpec (Fremont, Calif., USA). JAK1-JH1JH2 (574-1154 with a His-GST Tag and a C-terminal tev (ENLYFQ-G) cleavage site), JAK3-JH1JH2 (512-1124 with a GST Tag and a C-terminal tev (ENLYFQ-G) cleavage site), and Tyk2-JH1JH2 (8H_tev_580-1182-C936A-C1142A with a C-terminal tev (ENLYFQ-G) cleavage site) were purified internally. JAK2-JH1JH2 (532-1132 with a GST tag and C-terminal tev (ENLYFQ-G) cleavage site), was purchased from Invitrogen. LC/MS grade water and acetonitrile (ACN), were purchased from HoneyWell, Burdick & Jackson (Muskegon, Mich., USA). Dimethylsulfoxide 99.8% (DMSO) and trifluoroacetic acid 99.5% (TFA) were purchased from EMD Chemical (Gibbstown, N.J., USA). Adenosine triphosphate (ATP), 4-morpholinepropanesulfonic acid (MOPS), magnesium chloride (MgCl2), ethylenediaminetetraacetic acid (EDTA), dithiothreitol (DTT), formic acid>95% (FA) and Tween-20 were purchased from Sigma (St Louis, Mo., USA). 384-well polypropylene plates, Cat#781280 were purchased from Greiner (Monroe, N.C.), RapidFire™ cartridge A C4 Column (Agilent Technologies, Santa Clara, Calif.).The HTMS experiments were performed in positive ionization mode on a RapidFire 300 instrument (Agilent Technologies, Santa Clara, Calif.), coupled with an ABSiex QTrap 4000 system with an Electrospray Ionization source (RF-MS) (Concord, ON, Canada). The RapidFire system was run with 3 Agilent 1200 series isocratic pumps Agilent Technologies (Santa Clara, Calif.) and one peristaltic pump model ISM832C from Ismatec (Wertheim, Germany). The entire system was operated using the RapidFire software interfaced with Analyst software for the mass spectrometer.Assay Protocol11-point dosing series were made for each compound by serially diluting 1:3 or 1:4 in DMSO, with point 12 being a DMSO control. From the serial dilution plates, sample was transferred to a 384 wells assay plate (#781280, Greiner, Monroe, N.C.) using Labcyte Echo (Sunnyvale, Calif.), or Biosero ATS (San Diego, Calif.). The compounds were tested in duplicate. Column 12 was used for positive controls, and column 24 contained negative controls with no enzyme added. A compound from our internal collection, with inhibitory activity for JAK isoforms, was used as a reference compound. The final concentration of DMSO was ≤0.25% in a 20 μL reaction. The enzyme reaction was initiated by the addition of 10 μL of enzyme and ATP mixture to 10 μL of substrate solution prepared in reaction buffer (50 mM MOPS pH 7.5, 10 mM MgCl2, 1 mM EDTA, 2 mM DTT, 0.002% Tween-20). The Tyk2 enzyme was pre-incubated with 2 mM ATP for 30 min prior to the reaction initiation. Immediately after the addition of the enzyme to the reaction mixture, the plate was centrifuged at 1000 rpm for 1 minute and incubated at 25° C. for 45 minutes for JAK3 and 90 minutes for JAK1, JAK2 and Tyk2. The reaction was quenched by the addition of 20 μL of 0.5% TFA containing 0.15 μM of internal standard peptide using Multidrop Combi reagent dispenser (Thermo Scientific, Waltham, Mass.). Several wells in column 24 were typically used for the product standard curve. After the quench, the assay plate was centrifuged at 3000 rpm for 3 minutes and sealed with pierceable aluminum foil (Cat#06644-001, Agilent) using a PlateLoc (Agilent Technologies, Santa Clara, Calif.). The plates then were transferred on to the RapidFire for the MS analysis. Compound inhibition was assessed by a decrease of the phosphorylated product levels in sample wells compared to the non-inhibited enzyme reaction.
T1 sequence (P52333 whole entry): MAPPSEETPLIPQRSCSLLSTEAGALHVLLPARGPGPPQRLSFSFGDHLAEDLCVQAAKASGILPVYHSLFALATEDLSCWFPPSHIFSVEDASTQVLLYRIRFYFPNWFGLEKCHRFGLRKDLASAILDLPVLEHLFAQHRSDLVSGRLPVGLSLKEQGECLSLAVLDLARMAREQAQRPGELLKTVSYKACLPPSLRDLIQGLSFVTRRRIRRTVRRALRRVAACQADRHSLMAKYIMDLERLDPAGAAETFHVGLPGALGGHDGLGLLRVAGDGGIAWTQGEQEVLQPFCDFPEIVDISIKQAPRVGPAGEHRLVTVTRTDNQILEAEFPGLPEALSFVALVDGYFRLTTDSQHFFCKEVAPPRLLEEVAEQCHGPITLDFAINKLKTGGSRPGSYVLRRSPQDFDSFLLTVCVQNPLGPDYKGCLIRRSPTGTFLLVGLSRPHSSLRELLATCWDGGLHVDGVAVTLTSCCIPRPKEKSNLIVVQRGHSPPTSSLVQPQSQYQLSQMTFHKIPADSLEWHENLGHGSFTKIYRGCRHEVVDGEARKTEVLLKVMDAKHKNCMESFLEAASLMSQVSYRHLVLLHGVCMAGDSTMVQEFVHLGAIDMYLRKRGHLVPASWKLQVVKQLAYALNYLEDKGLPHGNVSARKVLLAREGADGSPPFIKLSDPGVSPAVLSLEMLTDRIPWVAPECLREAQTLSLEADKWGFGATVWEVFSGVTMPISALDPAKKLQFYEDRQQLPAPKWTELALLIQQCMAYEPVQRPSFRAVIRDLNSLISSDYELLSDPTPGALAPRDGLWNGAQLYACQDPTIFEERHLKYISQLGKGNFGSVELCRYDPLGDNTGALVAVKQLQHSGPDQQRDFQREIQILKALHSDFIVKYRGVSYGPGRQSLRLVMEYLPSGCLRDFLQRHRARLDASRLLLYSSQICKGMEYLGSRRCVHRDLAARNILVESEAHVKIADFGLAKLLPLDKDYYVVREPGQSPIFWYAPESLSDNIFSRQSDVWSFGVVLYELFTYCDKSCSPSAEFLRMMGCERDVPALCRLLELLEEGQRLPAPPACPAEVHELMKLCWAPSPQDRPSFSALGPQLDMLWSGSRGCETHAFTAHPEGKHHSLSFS

[3] = target: Non-receptor tyrosine-protein kinase TYK2 (Homo sapiens, UniProt P29597, C1142A/C936A); test: as §1
[4] = target: Tyrosine-protein kinase JAK1 (Homo sapiens, UniProt P23458); test: as §1
Chain of Tyrosine-protein kinase JAK1 (P23458 whole entry): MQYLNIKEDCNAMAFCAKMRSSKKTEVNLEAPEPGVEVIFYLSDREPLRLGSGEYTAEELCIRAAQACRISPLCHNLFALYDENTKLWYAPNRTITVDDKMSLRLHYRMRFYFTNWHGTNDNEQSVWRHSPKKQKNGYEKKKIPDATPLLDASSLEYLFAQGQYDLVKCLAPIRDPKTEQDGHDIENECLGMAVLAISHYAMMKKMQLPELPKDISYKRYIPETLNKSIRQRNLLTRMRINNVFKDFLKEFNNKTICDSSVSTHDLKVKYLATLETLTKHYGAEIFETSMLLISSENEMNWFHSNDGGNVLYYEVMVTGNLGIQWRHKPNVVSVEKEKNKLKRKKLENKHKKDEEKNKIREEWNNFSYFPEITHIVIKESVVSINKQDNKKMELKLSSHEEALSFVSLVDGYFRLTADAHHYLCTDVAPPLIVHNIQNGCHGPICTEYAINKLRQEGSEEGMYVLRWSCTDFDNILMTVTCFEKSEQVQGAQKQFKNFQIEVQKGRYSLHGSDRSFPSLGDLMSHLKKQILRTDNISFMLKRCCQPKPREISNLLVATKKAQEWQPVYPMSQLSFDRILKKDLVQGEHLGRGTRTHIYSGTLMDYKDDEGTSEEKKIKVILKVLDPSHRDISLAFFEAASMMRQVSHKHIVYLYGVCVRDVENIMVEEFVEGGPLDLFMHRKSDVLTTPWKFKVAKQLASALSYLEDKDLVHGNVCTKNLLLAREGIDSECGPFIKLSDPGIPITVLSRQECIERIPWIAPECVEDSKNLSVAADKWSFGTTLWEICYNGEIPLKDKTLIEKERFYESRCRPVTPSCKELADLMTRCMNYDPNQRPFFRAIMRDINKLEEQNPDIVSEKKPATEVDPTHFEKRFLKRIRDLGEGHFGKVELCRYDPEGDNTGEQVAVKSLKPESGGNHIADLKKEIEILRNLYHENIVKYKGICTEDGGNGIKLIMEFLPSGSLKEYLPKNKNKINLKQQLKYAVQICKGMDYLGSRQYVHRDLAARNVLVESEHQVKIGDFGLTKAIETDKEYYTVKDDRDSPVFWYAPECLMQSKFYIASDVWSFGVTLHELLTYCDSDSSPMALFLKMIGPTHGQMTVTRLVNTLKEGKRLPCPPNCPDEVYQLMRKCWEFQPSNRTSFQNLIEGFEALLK

Chain of Tyrosine-protein kinase JAK2 (O60674 whole entry, canonical isoform): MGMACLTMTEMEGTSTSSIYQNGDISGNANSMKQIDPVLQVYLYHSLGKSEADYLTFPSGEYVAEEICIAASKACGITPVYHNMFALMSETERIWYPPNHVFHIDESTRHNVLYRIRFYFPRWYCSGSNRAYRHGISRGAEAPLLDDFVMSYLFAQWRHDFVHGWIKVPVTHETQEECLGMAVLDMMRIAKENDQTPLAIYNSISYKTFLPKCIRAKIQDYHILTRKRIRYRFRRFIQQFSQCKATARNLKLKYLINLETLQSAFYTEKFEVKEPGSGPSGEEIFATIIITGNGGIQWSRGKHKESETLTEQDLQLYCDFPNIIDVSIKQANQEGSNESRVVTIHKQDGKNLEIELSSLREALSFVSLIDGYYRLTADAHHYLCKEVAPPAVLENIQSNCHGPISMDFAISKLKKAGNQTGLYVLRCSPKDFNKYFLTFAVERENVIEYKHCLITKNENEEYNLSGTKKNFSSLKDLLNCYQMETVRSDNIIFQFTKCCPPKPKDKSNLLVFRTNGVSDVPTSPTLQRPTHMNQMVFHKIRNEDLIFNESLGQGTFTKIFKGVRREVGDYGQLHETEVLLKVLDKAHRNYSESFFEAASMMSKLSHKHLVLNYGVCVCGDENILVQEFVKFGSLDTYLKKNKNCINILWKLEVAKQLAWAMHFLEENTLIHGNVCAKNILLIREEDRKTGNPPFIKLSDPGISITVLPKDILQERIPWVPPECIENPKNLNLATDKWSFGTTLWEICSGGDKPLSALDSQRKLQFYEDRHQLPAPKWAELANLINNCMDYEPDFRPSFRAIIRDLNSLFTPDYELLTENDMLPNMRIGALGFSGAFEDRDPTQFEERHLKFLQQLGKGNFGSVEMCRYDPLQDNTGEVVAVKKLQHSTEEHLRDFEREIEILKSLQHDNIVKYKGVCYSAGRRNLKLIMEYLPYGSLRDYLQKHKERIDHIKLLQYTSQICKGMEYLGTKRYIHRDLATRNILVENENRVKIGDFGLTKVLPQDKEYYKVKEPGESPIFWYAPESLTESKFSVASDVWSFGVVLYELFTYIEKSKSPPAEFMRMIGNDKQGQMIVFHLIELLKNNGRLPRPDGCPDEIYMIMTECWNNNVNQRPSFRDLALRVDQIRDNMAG
Chain of Non-receptor tyrosine-protein kinase TYK2 (P29597 whole entry C936A/C1142A): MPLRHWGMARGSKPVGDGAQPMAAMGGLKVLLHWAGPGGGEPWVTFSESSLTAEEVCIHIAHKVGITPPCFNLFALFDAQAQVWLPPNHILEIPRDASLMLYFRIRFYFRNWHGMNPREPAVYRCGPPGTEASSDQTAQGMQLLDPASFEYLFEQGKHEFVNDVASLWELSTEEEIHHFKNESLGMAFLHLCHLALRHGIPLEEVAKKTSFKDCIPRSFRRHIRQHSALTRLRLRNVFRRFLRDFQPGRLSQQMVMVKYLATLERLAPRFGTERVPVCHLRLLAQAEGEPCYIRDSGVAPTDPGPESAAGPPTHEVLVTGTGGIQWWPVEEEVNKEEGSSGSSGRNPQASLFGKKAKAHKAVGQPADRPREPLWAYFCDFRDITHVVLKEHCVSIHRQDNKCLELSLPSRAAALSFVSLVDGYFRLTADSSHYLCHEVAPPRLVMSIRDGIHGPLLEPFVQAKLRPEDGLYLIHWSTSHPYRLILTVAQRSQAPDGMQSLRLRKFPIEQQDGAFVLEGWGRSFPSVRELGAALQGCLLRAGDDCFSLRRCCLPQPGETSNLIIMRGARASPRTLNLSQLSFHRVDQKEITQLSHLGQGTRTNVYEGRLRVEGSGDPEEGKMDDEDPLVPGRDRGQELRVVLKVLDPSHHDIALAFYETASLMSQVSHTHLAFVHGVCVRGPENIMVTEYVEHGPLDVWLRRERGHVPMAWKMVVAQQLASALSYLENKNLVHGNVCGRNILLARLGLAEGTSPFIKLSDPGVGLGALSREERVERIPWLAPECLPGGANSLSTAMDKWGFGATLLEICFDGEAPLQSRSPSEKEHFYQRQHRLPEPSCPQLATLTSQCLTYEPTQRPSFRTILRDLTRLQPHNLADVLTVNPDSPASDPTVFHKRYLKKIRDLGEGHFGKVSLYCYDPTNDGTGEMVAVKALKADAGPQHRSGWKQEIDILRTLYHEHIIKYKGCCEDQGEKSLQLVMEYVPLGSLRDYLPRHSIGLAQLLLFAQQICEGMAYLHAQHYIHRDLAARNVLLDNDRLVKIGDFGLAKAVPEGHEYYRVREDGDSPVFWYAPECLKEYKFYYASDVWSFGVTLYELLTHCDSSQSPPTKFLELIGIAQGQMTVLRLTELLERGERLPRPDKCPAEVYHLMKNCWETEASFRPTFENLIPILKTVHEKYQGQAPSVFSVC

Structure (SMILES) | IC50 [1] | IC50 [2] | IC50 [3] | IC50 [4]
N#CC[C@H]1CC[C@H](n2c(CO)nc3cnc4[nH]ccc4c32)CC1 | < 0.2 nM | 13.4 nM | < 0.2 nM | < 0.2 nM
Cc1nc2cnc3[nH]ccc3c2n1[C@H]1CC[C@H](CC#N)CC1 | < 0.2 nM | 12.4 nM | 0.9 nM | < 0.2 nM

Source: ChEMBL document CHEMBL5726951, “Small molecule inhibitors of the JAK family of kinases” (2019)
